Data from publication PMC10387993, “New pyrimidine-N-β-D-glucosides: synthesis, biological evaluation, and molecular docking investigations” (Turkish Journal of Chemistry, 2023).
Converted amounts (≈) assume the structure as drawn. Read-outs that look alike come from different tables or passages of the source.

Assays:
Format in all cases: cell-based
[1] = LDH cytotoxic activity assay, MCF7; conditions: human, MCF7 cells; for cytotoxicity at 24 h, 25 μg/mL: MCF7, 25 μg/mL; for cytotoxicity at 24 h, 50 μg/mL: MCF7, 50 μg/mL; for cytotoxicity at 24 h, 75 μg/mL: MCF7, 75 μg/mL
Method: (§1) The cell lines were cultured in a cell medium (Dulbecco’s modified eagle’s or RPMI 1640) enriched with 10% (v/v) fetal bovine serum and 2% (v/v) Penicillin-Streptomycin (10,000 U/mL). First, old medium was removed out of the flask when the cells reached approximately 80% confluence. Next, cells were taken from the flasks surface using trypsin-EDTA solution and then subjected to centrifugation. Following, the cell pellet was suspended with fresh media and was inoculated into wells.
(§2) Approximately 5 × 10^3 cells in 100 μL were placed into 96-well plates as triplicates and treated with 25, 50, 75, and 100 μg/mL concentrations of test compounds at 37 °C with 5% CO2 for 24 h. LDH activity was obtained by determining absorbance at 492–630 nm using a microplate reader.

[2] = LDH cytotoxic activity assay, FL; conditions: human, FL cells (normal cells)
Method: as §1, §2

[3] = LDH cytotoxic activity assay, A549; conditions: human, A549 cells; for cytotoxicity at 24 h, 25 μg/mL: A549, 25 μg/mL; for cytotoxicity at 24 h, 50 μg/mL: A549, 50 μg/mL; for cytotoxicity at 24 h, 75 μg/mL: A549, 75 μg/mL; for cytotoxicity at 24 h, 100 μg/mL: A549, 100 μg/mL
Method: as §1, §2

[4] = LDH cytotoxic activity assay, Hep3B; conditions: human, Hep3B cells
Method: as §1, §2

[5] = system: S. mutans ATCC 35668; assay: Microdilution MIC assay; conditions: S. mutans ATCC 35668, 24 h at 35 °C
Method in brief: (§3)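 MICs come from a microwell dilution format incubated for 24 h at 35 °C, with the endpoint being the lowest concentration that prevented visible growth.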

[6] = system: E. faecalis ATCC 29212; assay: Microdilution MIC assay; conditions: E. faecalis ATCC 29212, 24 h at 35 °C
Method in brief: as §3

[7] = system: A. actinomycetemcomitans ATCC 33384; assay: Microdilution MIC assay; conditions: Aggregatibacter actinomycetemcomitans, ATCC33384; A. actinomycetemcomitans ATCC 33384, 24 h at 35 °C
Method in brief: as §3

[8] = system: S. aureus MSSA ATCC 29213; assay: Microdilution MIC assay; conditions: S. aureus MSSA ATCC 29213, 24 h at 35 °C
Method in brief: as §3

[9] = system: P. aeruginosa AGME ATCC 27853; assay: Microdilution MIC assay; conditions: Pseudomonas aeruginosa, ATCC27853; P. aeruginosa AGME ATCC 27853, 24 h at 35 °C
Method in brief: as §3

[10] = as the column head prints, head prints FL
[11] = Streptococcus mutans, ATCC35668, 24 h, read-out: MIC
[12] = Enterococcus faecalis, ATCC29212, 24 h, read-out: MIC
[13] = Staphylococcus aureus, 24 h, read-out: MIC

Row | Structure (SMILES) | MIC [5] [µg/mL] | MIC [5, 11] [µg/mL] | MIC [6, 12] [µg/mL] | MIC [7] [µg/mL] | MIC [8, 13] [µg/mL] | MIC [9] [µg/mL] | MIC [8] [µg/mL] | also measured
1 | CC(=O)OC[C@H]1O[C@@H](Nc2nc(-c3ccncc3)cc(-c3ccccc3C)n2)[C@H](OC(C)=O)[C@@H](OC(C)=O)[C@@H]1OC(C)=O [Compound 12, 2,3,4,6-tetra-O-acetyl-N-[4-(2-methylphenyl)-6-pyridin-4-ylpyrimidin-2-yl]-β-D-glucopyranosylamine] | 62.5 (≈ 105 µM) | 62.5 to 125 (≈ 105 to 211 µM) | 250 (≈ 422 µM) | > 1000 | 1000 (≈ 1690 µM) | > 1000 |  | 
2 | CC(=O)OC[C@H]1O[C@@H](Nc2nc(-c3cccc(C)c3)cc(-c3ccccn3)n2)[C@H](OC(C)=O)[C@@H](OC(C)=O)[C@@H]1OC(C)=O [Compound 13, 2,3,4,6-tetra-O-acetyl-N-[4-(3-methylphenyl)-6-pyridin-2-ylpyrimidin-2-yl]-β-D-glucopyranosylamine] | 125 (≈ 211 µM) | 62.5 to 125 (≈ 105 to 211 µM) | 31.2 to 125 (≈ 52.7 to 211 µM) | > 1000 | 62.5 to 125 (≈ 105 to 211 µM) | > 1000 | 125 (≈ 211 µM) | MIC [6]: 31.25 µg/mL (≈ 52.7 µM)
3 | CC(=O)OC[C@H]1O[C@@H](Nc2nc(-c3ccccn3)cc(-c3ccccc3C)n2)[C@H](OC(C)=O)[C@@H](OC(C)=O)[C@@H]1OC(C)=O [Compound 10, 2,3,4,6-tetra-O-acetyl-N-[4-(2-methylphenyl)-6-pyridin-2-ylpyrimidin-2-yl]-β-D-glucopyranosylamine] |  | 500 (≈ 844 µM) | 500 (≈ 844 µM) | > 1000 | > 1000 | > 1000 |  | 
4 | CC(=O)OC[C@H]1O[C@@H](Nc2nc(-c3ccncc3)cc(-c3ccc(C)cc3)n2)[C@H](OC(C)=O)[C@@H](OC(C)=O)[C@@H]1OC(C)=O [Compound 18, 2,3,4,6-tetra-O-acetyl-N-[4-(4-methylphenyl)-6-pyridin-4-ylpyrimidin-2-yl]-β-D-glucopyranosylamine] | 125 (≈ 211 µM) | 62.5 to 125 (≈ 105 to 211 µM) |  | > 1000 | 1000 (≈ 1690 µM) | > 1000 |  | 
5 | CC(=O)OC[C@H]1O[C@@H](Nc2nc(-c3cccnc3)cc(-c3cccc(C)c3)n2)[C@H](OC(C)=O)[C@@H](OC(C)=O)[C@@H]1OC(C)=O [Compound 14, 2,3,4,6-tetra-O-acetyl-N-[4-(3-methylphenyl)-6-pyridin-3-ylpyrimidin-2-yl]-β-D-glucopyranosylamine] | 62.5 (≈ 105 µM) | 62.5 to 125 (≈ 105 to 211 µM) | 31.2 to 125 (≈ 52.7 to 211 µM) | > 1000 | 62.5 to 125 (≈ 105 to 211 µM) | > 1000 | 125 (≈ 211 µM) | MIC [6]: 31.25 µg/mL (≈ 52.7 µM)
6 | CC(=O)OC[C@H]1O[C@@H](Nc2nc(-c3ccncc3)cc(-c3cccc(C)c3)n2)[C@H](OC(C)=O)[C@@H](OC(C)=O)[C@@H]1OC(C)=O [Compound 15, 2,3,4,6-tetra-O-acetyl-N-[4-(3-methylphenyl)-6-pyridin-4-ylpyrimidin-2-yl]-β-D-glucopyranosylamine] | 62.5 (≈ 105 µM) | 62.5 to 125 (≈ 105 to 211 µM) | 31.2 to 125 (≈ 52.7 to 211 µM) | > 1000 | 250 (≈ 422 µM) | > 1000 |  | MIC [6]: 31.25 µg/mL (≈ 52.7 µM)
7 | CC(=O)OC[C@H]1O[C@@H](Nc2nc(-c3cccnc3)cc(-c3ccccc3C)n2)[C@H](OC(C)=O)[C@@H](OC(C)=O)[C@@H]1OC(C)=O [Compound 11, 2,3,4,6-tetra-O-acetyl-N-[4-(2-methylphenyl)-6-pyridin-3-ylpyrimidin-2-yl]-β-D-glucopyranosylamine] |  | 250 (≈ 422 µM) |  | > 1000 | 62.5 to 125 (≈ 105 to 211 µM) | > 1000 | 125 (≈ 211 µM) | 

More lines, main results first:

Row | MIC [5] [µg/mL] | MIC [5, 11] [µg/mL] | MIC [6, 12] [µg/mL] | MIC [7] [µg/mL] | MIC [8, 13] [µg/mL] | MIC [9] [µg/mL] | MIC [8] [µg/mL] | Structure (SMILES) | also measured
8 | 125 (≈ 294 µM) | 62.5 to 125 (≈ 147 to 294 µM) | 250 (≈ 589 µM) | 250 (≈ 589 µM) | 250 (≈ 589 µM) | > 1000 |  | Cc1ccc(-c2cc(-c3ccccn3)nc(N[C@@H]3O[C@H](CO)[C@@H](O)[C@H](O)[C@H]3O)n2)cc1 [Compound 7, N-[4-(4-methylphenyl)-6-pyridin-2-ylpyrimidin-2-yl]-β-D-glucopyranosylamine] | cytotoxicity at 24 h, 25 μg/mL [1]: 4.05%; cytotoxicity at 24 h, 50 μg/mL [1]: 20.1%; cytotoxicity at 24 h, 75 μg/mL [1]: 26.6%; cytotoxicity at 24 h, 25 μg/mL ([2]; FL): 18.1%; cytotoxicity at 24 h, 50 μg/mL ([2]; FL): 30.5%; cytotoxicity at 24 h, 75 μg/mL ([2]; FL): 46.5%; cytotoxicity at 24 h, 100 μg/mL ([2]; FL): 73.2%; cytotoxicity at 24 h, 100 μg/mL [2, 10]: 40.7%; cytotoxicity at 24 h, 25 μg/mL [3]: 24.3%; cytotoxicity at 24 h, 50 μg/mL [3]: 24.4%; cytotoxicity at 24 h, 75 μg/mL [3]: 27.4%; cytotoxicity at 24 h, 100 μg/mL [3]: 40.6%; cytotoxicity at 24 h, 25 μg/mL [4]: 9.37%; cytotoxicity at 24 h, 50 μg/mL [4]: 17%; cytotoxicity at 24 h, 75 μg/mL [4]: 34.3%; cytotoxicity at 24 h, 100 μg/mL [4]: 44.5%
9 | 125 (≈ 211 µM) | 62.5 to 125 (≈ 105 to 211 µM) |  | > 1000 | 62.5 to 125 (≈ 105 to 211 µM) | > 1000 | 125 (≈ 211 µM) | CC(=O)OC[C@H]1O[C@@H](Nc2nc(-c3ccc(C)cc3)cc(-c3cccnc3)n2)[C@H](OC(C)=O)[C@@H](OC(C)=O)[C@@H]1OC(C)=O [Compound 17, 2,3,4,6-tetra-O-acetyl-N-[4-(4-methylphenyl)-6-pyridin-3-ylpyrimidin-2-yl]-β-D-glucopyranosylamine] | 
10 |  | 250 (≈ 589 µM) | 1000 (≈ 2360 µM) | 500 (≈ 1180 µM) | 62.5 to 125 (≈ 147 to 294 µM) | > 1000 | 62.5 (≈ 147 µM) | Cc1ccc(-c2cc(-c3cccnc3)nc(N[C@@H]3O[C@H](CO)[C@@H](O)[C@H](O)[C@H]3O)n2)cc1 [Compound 8, N-[4-(4-methylphenyl)-6-pyridin-3-ylpyrimidin-2-yl]-β-D-glucopyranosylamine] | cytotoxicity at 24 h, 25 μg/mL [1]: 10%; cytotoxicity at 24 h, 50 μg/mL [1]: 20.1%; cytotoxicity at 24 h, 75 μg/mL [1]: 32.8%; cytotoxicity at 24 h, 25 μg/mL ([2]; FL): 20.8%; cytotoxicity at 24 h, 50 μg/mL ([2]; FL): 34.1%; cytotoxicity at 24 h, 75 μg/mL ([2]; FL): 41%; cytotoxicity at 24 h, 100 μg/mL ([2]; FL): 69.9%; cytotoxicity at 24 h, 100 μg/mL [2, 10]: 43.5%; cytotoxicity at 24 h, 25 μg/mL [3]: 28.1%; cytotoxicity at 24 h, 50 μg/mL [3]: 26%; cytotoxicity at 24 h, 75 μg/mL [3]: 47.4%; cytotoxicity at 24 h, 100 μg/mL [3]: 58.1%; cytotoxicity at 24 h, 25 μg/mL [4]: 15.6%; cytotoxicity at 24 h, 50 μg/mL [4]: 20.5%; cytotoxicity at 24 h, 75 μg/mL [4]: 36.2%; cytotoxicity at 24 h, 100 μg/mL [4]: 52.9%
11 |  | 500 (≈ 1180 µM) | > 1000 | 500 (≈ 1180 µM) | 1000 (≈ 2360 µM) | > 1000 |  | Cc1ccccc1-c1cc(-c2ccncc2)nc(N[C@@H]2O[C@H](CO)[C@@H](O)[C@H](O)[C@H]2O)n1 [Compound 3, N-[4-(2-methylphenyl)-6-pyridin-4-ylpyrimidin-2-yl]-β-D-glucopyranosylamine] | 
12 |  | 1000 (≈ 2360 µM) | > 1000 | 250 (≈ 589 µM) | 62.5 to 125 (≈ 147 to 294 µM) | > 1000 | 125 (≈ 294 µM) | Cc1ccccc1-c1cc(-c2cccnc2)nc(N[C@@H]2O[C@H](CO)[C@@H](O)[C@H](O)[C@H]2O)n1 [Compound 2, N-[4-(2-methylphenyl)-6-pyridin-3-ylpyrimidin-2-yl]-β-D-glucopyranosylamine] | 
